{"source": "paper PMC3081638", "about": "(The Journal of neuroscience : the official journal of the …, 2011)", "key": {"nicotinic α4β2 receptor": {"molecular_target": "nicotinic α4β2 receptor (Homo sapiens, UniProt P43681)", "details": "ref Paradiso et al., 2001; cited from earlier work"}, "[1]": {"molecular_target": "nicotinic α4β2 receptor, α4 & β2 1:8 (Homo sapiens, UniProt P17787+P43681)", "test": "Agonist activation, two-electrode voltage clamp of Xenopus oocytes", "type": "cell-based", "details": "response to 1 μM 5I A85380 normalized to the response to 1 mM ACh"}, "[2]": {"molecular_target": "nicotinic α4β2 receptor, α4 & β2 8:1 (Homo sapiens, UniProt P17787+P43681)", "test": "Agonist activation, two-electrode voltage clamp of Xenopus oocytes", "type": "cell-based", "details": "response to 1 μM 5I A85380 normalized to the response to 1 mM ACh"}, "[3]": {"molecular_target": "α/β concatemer expressed alone (Homo sapiens, UniProt P17787+P43681)", "test": "Agonist activation, two-electrode voltage clamp of Xenopus oocytes", "type": "cell-based", "details": "response to 1 μM 5I A85380 normalized to the response to 1 mM ACh"}, "[4]": {"molecular_target": "β/α concatemer expressed alone (Homo sapiens, UniProt P17787+P43681)", "test": "Agonist activation, two-electrode voltage clamp of Xenopus oocytes", "type": "cell-based", "details": "response to 1 μM 5I A85380 normalized to the response to 1 mM ACh"}, "α/β & α4": {"molecular_target": "α/β & α4 (Homo sapiens, UniProt P17787+P43681)", "test": "Agonist activation, two-electrode voltage clamp of Xenopus oocytes", "type": "cell-based", "details": "response to 1 μM 5I A85380 normalized to the response to 1 mM ACh"}, "β/α & α4": {"molecular_target": "β/α & α4 (Homo sapiens, UniProt P17787+P43681)", "test": "Agonist activation, two-electrode voltage clamp of Xenopus oocytes", "type": "cell-based", "details": "response to 1 μM 5I A85380 normalized to the response to 1 mM ACh"}, "α/β & β2": {"molecular_target": "α/β & β2 (Homo sapiens, UniProt P17787+P43681)", "test": "Agonist activation, two-electrode voltage clamp of Xenopus oocytes", "type": "cell-based"}, "β/α & β2": {"molecular_target": "β/α & β2 (Homo sapiens, UniProt P17787+P43681)", "test": "Agonist activation, two-electrode voltage clamp of Xenopus oocytes", "type": "cell-based"}, "α/β&β2F119Q": {"molecular_target": "α/β&β2F119Q (Homo sapiens, UniProt P17787+P43681, F144Q)", "test": "Agonist activation, two-electrode voltage clamp of Xenopus oocytes", "type": "cell-based"}, "β/α&β2F119Q": {"molecular_target": "β/α&β2F119Q (Homo sapiens, UniProt P17787+P43681, F144Q)", "test": "Agonist activation, two-electrode voltage clamp of Xenopus oocytes", "type": "cell-based"}, "(α4)2(β3)3": {"system": "(α4)2(β3)3", "details": "(α4)2(β3)3 receptor; ref Zwart et al., 2006; cited from earlier work"}, "[5]": {"system": "nicotinic α4β2 receptor, pooled combinations of constructs", "test": "Steroid potentiation, values pooled over combinations of constructs", "type": "cell-based, human", "details": "for mean potentiation, single copy of WLAGMI: 10 μM 17β-estradiol"}, "αWLAAC with α/β": {"molecular_target": "αWLAAC with α/β (Homo sapiens, UniProt P43681)", "type": "cell-based", "details": "10 μM, Figure 6"}, "β/αWLAAC&β2": {"molecular_target": "β/αWLAAC&β2 (Homo sapiens, UniProt P17787+P43681)", "type": "cell-based", "details": "β/αWLAAC concatemer with free β2; 10 μM; Figure 6"}, "α/β&α-M3-β": {"system": "α/β&α-M3-β", "type": "cell-based, human", "details": "α-M3-β chimera with the α/β concatemer; 10 μM; Figure 6"}, "α/β&β-M3-α": {"molecular_target": "α/β&β-M3-α (Homo sapiens, UniProt P17787+P43681, A332P/K336R/P333T/T327R/V337R)", "type": "cell-based", "details": "β-M3-α chimera (α4 sequence transferred to β2); 10 μM; Figure 6"}}, "data": [{"smiles": "CC12CCC3c4ccc(O)cc4CCC3C1CCC2O", "note": "(single isomer, unassigned) [enantiomer of 17β-estradiol]", "values": [{"measurement": "potentiation of the α4β2 receptor (in words)", "setting": "nicotinic α4β2 receptor", "result": "does not potentiate"}]}, {"smiles": "Ic1cncc(OC[C@@H]2CCN2)c1", "note": "[5I A85380, 5-iodo-3-(2(S)-azetidinylmethoxy) pyridine]", "values": [{"measurement": "5I A85380 response", "setting": "[1]", "result": 1.44}, {"measurement": "5I A85380 response", "setting": "[2]", "result": 0.19}, {"measurement": "5I A85380 response", "setting": "[3]", "result": 0.16}, {"measurement": "5I A85380 response", "setting": "[4]", "result": 0.44}, {"measurement": "5I A85380 response", "setting": "α/β & α4", "result": 0.14}, {"measurement": "5I A85380 response", "setting": "β/α & α4", "result": 0.17}, {"measurement": "EC50", "setting": "α/β & β2", "result": "8 ± 1", "unit": "nM"}, {"measurement": "5I A85380 response", "setting": "α/β & β2; α/β & β2, response to 1 μM 5I A85380 normalized to the response to 1 mM ACh", "result": 1.84}, {"measurement": "5I A85380 maximal response", "setting": "α/β & β2; α/β concatemer with wild-type β2, normalized to the response to 1 mM ACh", "result": "1.44 ± 0.07", "unit": "fold"}, {"measurement": "EC50", "setting": "β/α & β2", "result": "29 ± 12", "unit": "nM"}, {"measurement": "5I A85380 response", "setting": "β/α & β2; β/α & β2, response to 1 μM 5I A85380 normalized to the response to 1 mM ACh", "result": 1.59}, {"measurement": "5I A85380 maximal response", "setting": "β/α & β2; β/α concatemer with β2, normalized to the response to 1 mM ACh", "result": "1.44 ± 0.10", "unit": "fold"}, {"measurement": "EC50", "setting": "α/β&β2F119Q", "result": "127 ± 14", "unit": "nM"}, {"measurement": "5I A85380 maximal response", "setting": "α/β&β2F119Q; α/β concatemer with β2F119Q, normalized to the response to 1 mM ACh", "result": "1.13 ± 0.11", "unit": "fold"}, {"measurement": "EC50", "setting": "β/α&β2F119Q", "result": "16 ± 1", "unit": "nM"}, {"measurement": "5I A85380 maximal response", "setting": "β/α&β2F119Q; β/α concatemer with β2F119Q, normalized to the response to 1 mM ACh", "result": "1.29 ± 0.04", "unit": "fold"}, {"measurement": "maximal response to 5I A85380 compared with ACh", "setting": "(α4)2(β3)3", "result": "greater than the maximal response to ACh"}]}, {"smiles": "C[C@]12CC[C@@H]3c4ccc(O)cc4CC[C@H]3[C@@H]1CC[C@@H]2O", "note": "[17β-estradiol]", "values": [{"measurement": "average potentiation by 10 μM 17β-estradiol", "setting": "[5]; 0 WLAGMI domains, 10 combinations tested", "result": "0.97 ± 0.02"}, {"measurement": "average potentiation by 10 μM 17β-estradiol", "setting": "[5]; 1 WLAGMI domain, 10 combinations", "result": "2.2 ± 0.2"}, {"measurement": "average potentiation by 10 μM 17β-estradiol", "setting": "[5]; 2 WLAGMI domains, 5 combinations", "result": "2.4 ± 0.4"}, {"measurement": "average potentiation by 10 μM 17β-estradiol", "setting": "[5]; 3 WLAGMI domains, 4 combinations", "result": "3.3 ± 0.2"}, {"measurement": "average potentiation by 10 μM 17β-estradiol", "setting": "[5]; 5 WLAGMI domains, 3 combinations", "result": "3.7 ± 0.3"}, {"measurement": "mean potentiation by 17β-estradiol", "setting": "[5]; 5 cases with no untethered AGMI and 2 or 3 critical tryptophans", "result": "0.94 ± 0.04"}, {"measurement": "mean potentiation, single copy of WLAGMI", "setting": "[5]; WLAGMI on α4 N-terminal constructs, N=2 combinations", "result": "1.6 ± 0.1", "unit": "fold"}, {"measurement": "mean potentiation, single copy of WLAGMI", "setting": "[5]; WLAGMI on β2 N-terminal constructs, N=8 combinations", "result": "2.3 ± 0.3", "unit": "fold"}, {"measurement": "mean potentiation, single copy of WLAGMI", "setting": "[5]; domain on the structural subunit, 4 combinations", "result": "2.4 ± 0.5", "unit": "fold"}, {"measurement": "potentiation by 17β-estradiol (in words)", "setting": "αWLAAC with α/β", "result": "removes potentiation"}, {"measurement": "potentiation by 17β-estradiol (in words)", "setting": "β/αWLAAC&β2", "result": "but not when it is expressed with free β2"}, {"measurement": "potentiation by 17β-estradiol (in words)", "setting": "α/β&α-M3-β", "result": "removes potentiation"}, {"measurement": "potentiation by 17β-estradiol (in words)", "setting": "α/β&β-M3-α", "result": "confers potentiation"}]}]}
